Source: US20230303599A1, “PRODRUGS OF PHOSPHONAMIDE NUCLEOTIDE ANALOGUES AND THEIR PHARMACEUTICAL USE” (priority 2020, published 2023)
pEC50: −log10 of the molar value. In brackets after ≈: the same amount, converted by molar mass.

How the values were obtained:
HBV = experiment: Antiviral (HBV) assay in primary human hepatocytes (PHHs); assay type: cell-based; conditions: Hepatitis B virus, Hepatocyte, 120 h; HBV (GTD) infected PHH, 5 days, HBV DNA in supernatant; average of at least two independent experiments
Method: Example 106: Antiviral (HBV) Assay in Primary Human Hepatocytes (PHHs)
Cryopreserved PHH were thawed, recovered by centrifugation at 100 g in cryopreserved hepatocyte recovery medium (Thermo Fisher Scientific; CM7500), and plated on collagen matrix (Life Technologies; Catalog Number: R-011-K) coated T225 flasks (Corning CellBIND, Catalog Number: 3293) at a density of 25E6 live cells in 60 mls media. Cells were plated in William's E medium (Thermo Fisher Scientific; A1217601) supplemented with 3.6% hepatocyte thawing and plating supplement (Thermo Fisher Scientific, A15563), 5% fetal bovine serum (Thermo Fisher Scientific; 16000-036), 1 μM dexamethasone (Thermo Fisher Scientific, A15563), and 0.2% Torpedo antibiotic mix (Bioreclamation; Z990008). The plating medium was removed after 14 hours and the cells were subsequently cultured in maintenance medium: William's E medium supplemented with 4% hepatocyte maintenance supplement (Thermo Fisher Scientific; AI15564), 2% fetal bovine serum, 0.1μ M dexamethasone, 1.5% DMSO (Sigma-Aldrich, St. Louis, MO; D8418), and 0.2% Torpedo antibiotic mix. Approximately 24 hours after plating, PHH were infected with HepAD38-derived GTD virus at 500 viral genome equivalents per cell in PHH maintenance medium supplemented with 4% PEG 8000 (Promega, Madison, WI; V3011). Infections were allowed to proceed for 24 hours before removing the remaining extracellular virions by washing with maintenance medium three times. After allowing viral infection to take place for 3 days, the infected cells were harvested from the flasks by trypsinization (0.25X in PBS without Ca/Mg, 25 minutes) following a 4 minute 0.5X Versene (Life Technologies Catalog Number: 15040-066) treatment and two PBS washes. Trypsinized cells were inactivated in 10% FBS containing maintenance medium, centrifuged 6 minutes at 50 g, resuspended in hepatocyte maintenance medium, filtered through a 40 uM cell strainer, and adjusted to a density of 0.25E6 cells/ml. Infected cells were seeded on 384 well collagen coated plates (Greiner, Austria) at a density of 20,000 cells/well containing serially diluted compounds of the present disclosure or DMSO (0.5%) in a final volume of 80 μl. The assay plates were incubated for a period of 5 days and the antiviral activity of the test compounds were assayed by detecting the presence of HBV DNA in the culture supernatant using the QuantiGene™ 2.0 nucleic acid quantification kit (Affymetrix, Santa Clara, CA).

[1] = Cytotoxicity assay in MT-4 cells; assay type: cell-based; conditions: human, uninfected MT-4 cells, average of at least two independent experiments, read-out: MT4 CC50
Method: Compounds were tested in a high-throughput 384-well assay format for their ability to inhibit the replication of HIV-1 (IIIB) in MT-4 cells. Compounds were serially diluted (1:3) in DMSO on 384-well polypropylene plates and further diluted 200-fold into complete RPMI media (10% FBS, 1% P/S) using the Biotek Micro Flow and Labcyte ECHO acoustic dispenser. Each plate contained up to 8 test compounds, with negative (no drug) and positive (5 μM AZT) controls. MT-4 cells were pre-treated with 10 μL of either RPMI (mock-infected) or a fresh 1:250 dilution of HIV-1 IIIB concentrated virus stock. Infected and uninfected MT-4 cells were further diluted in complete RPMI media and added to each plate using a Micro Flow dispenser. After 5 days incubation in a humidified and temperature-controlled incubator (37° C.), Cell Titer Glo (Promega) was added to the assay plates and chemiluminescence read using an Envision plate-reader. EC50 values were defined as the compound concentration that causes a 50% decrease in luminescence signal and were calculated using a sigmoidal dose-response model to generate curve fits and are shown in Table 1.
Example 105: Cytotoxicity Assay in MT-4 Cells
Assays were performed as described in Example 104 except uninfected MT-4 cells were added to each well containing test compound. In addition, 10 μM puromycin was added to the last column of each assay plate to assess a base level of cytotoxicity.

[2] = Cytotoxicity assay in primary human hepatocytes (PHHs); assay type: cell-based; conditions: HBV-infected primary human hepatocytes, HBV-infected PHH, Cell Titer Glo, average of at least two independent experiments
Method: Example 107: Cytotoxicity Assay in Primary Human Hepatocytes (PHHs)
The HBV-infected primary human hepatocytes are seeded (20K cells/well in 80 uL of Media) in 384well collagen coated plates pre-spotted with compounds. After 5 days, 40 ul of cell supernatant is removed to quantify HBV DNA levels as described in Example 106. Then, 40 ul Cell Titer Glo Reagent (Promega Catalog Number: G7572) is added to the remaining cells and luminescence is measured on the EnVision microplate reader.

[3] = Kinetic solubility analysis; assay type: physicochemical; conditions: 1× PBS, 24.2 °C, aqueous buffer, kinetic from dmso stock; pH 7.4 PBS, 1% DMSO, 24-hour incubation at ambient temperature
Method in brief: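 Compounds from 10 mM DMSO stocks were incubated in 0.1 N HCl or 1× PBS pH 7.4 (1.0% DMSO, 100 μM maximum theoretical) for 24 h at 24.2-27.5 °C, then vacuum filtered. Filtrates were quantified in μM by chemiluminescent nitrogen detection against a calibration curve, corrected for background nitrogen; values for adjacent ring-nitrogen compounds were raised ~25%.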

Row | SMILES | pEC50 (HBV) | CC50 at 5 days [1] [nM] | CC50 at 5 days [2] [nM] | solubility kinetic at 24 h [3] [µg/mL]
1 | C[C@H](Cn1cnc2c(N)ncnc21)OCP(=O)(NC(C)(C)C(=O)OCC12CC3CC(CC(C3)C1)C2)NC(C)(C)C(=O)OCC12CC3CC(CC(C3)C1)C2 [Example 59, Bis(((1S,3S)-adamantan-1-yl)methyl) 2,2′-((((((R)-1-(6-amino-9H-purin-9-yl)propan-2-yl)oxy)methyl)phosphoryl)bis(azanediyl))bis(2-methylpropanoate)] | 8.19 | 6960 | > 100 | < 1
2 | C[C@H](Cn1cnc2c(N)ncnc21)OCP(=O)(NC(C)(C)C(=O)OCC1CCC2(CCC2)CC1)NC(C)(C)C(=O)OCC1CCC2(CCC2)CC1 (stereo partly drawn) [Example 53, Bis(spiro[3.5]nonan-7-ylmethyl) 2,2′-(((((1-(6-amino-9H-purin-9-yl)propan-2-yl)oxy)methyl)phosphoryl)bis(azanediyl))(R)-bis(2-methylpropanoate)] | 8.08 | 7550 | > 100 | < 1
3 | CCC1(CC)CC(OC(=O)C(C)(C)NP(=O)(CO[C@H](C)Cn2cnc3c(N)ncnc32)NC(C)(C)C(=O)OC2CC(CC)(CC)C2)C1 [Example 49, Bis(3,3-diethylcyclobutyl) 2,2′-(((((1-(6-amino-9H-purin-9-yl)propan-2-yl)oxy)methyl)phosphoryl)bis(azanediyl))(R)-bis(2-methylpropanoate)] | 8.26 | 5220 | > 100 | 4 (≈ 5.9 µM)
4 | CCCCCCOC(=O)C(C)(C)NP(=O)(CO[C@H](C)Cn1cnc2c(NC(=O)OCc3oc(=O)oc3C)ncnc21)NC(C)(C)C(=O)OCCCCCC [Example 33, Dihexyl 2,2′-(((((1-(6-((((5-methyl-2-oxo-1,3-dioxol-4-yl)methoxy)carbonyl)amino)-9H-purin-9-yl)propan-2-yl)oxy)methyl)phosphoryl)bis(azanediyl))(R)-bis(2-methylpropanoate)] | 8.58 | 6620 | > 100 | 14 (≈ 17.9 µM)
5 | C[C@H](Cn1cnc2c(N)ncnc21)OCP(=O)(NC(C)(C)C(=O)OC[C@H]1CC[C@H](C)CC1)NC(C)(C)C(=O)OC[C@H]1CC[C@H](C)CC1 [Example 91, Bis((trans-4-methylcyclohexyl)methyl) 2,2′-((((((R)-1-(6-amino-9H-purin-9-yl)propan-2-yl)oxy)methyl)phosphoryl)bis(azanediyl))bis(2-methylpropanoate)] | 8.42 | 4920 | > 100 | 
6 | CCC[C@H]1CC[C@H](COC(=O)C(C)(C)NP(=O)(CO[C@H](C)Cn2cnc3c(N)ncnc32)NC(C)(C)C(=O)OC[C@H]2CC[C@H](CCC)CC2)CC1 [Example 92] | 8.34 | 7990 | > 100 | < 1
7 | CCCCCCCCOC(=O)C(C)(C)NP(=O)(CO[C@H](C)Cn1cnc2c(N)ncnc21)NC(C)(C)C(=O)OCCCCCCCC [Example 39, Dioctyl 2,2′-(((((1-(6-amino-9H-purin-9-yl)propan-2-yl)oxy)methyl)phosphoryl)bis(azanediyl))(R)-bis(2-methylpropanoate)] | 8.35 | 7270 | > 100 | 
8 | C[C@H](Cn1cnc2c(N)ncnc21)OCP(=O)(NC(C)(C)C(=O)O[C@H]1C[C@H](C(C)(C)C)C1)NC(C)(C)C(=O)O[C@H]1C[C@H](C(C)(C)C)C1 [Example 52, Bis((1R,3R)-3-(tert-butyl)cyclobutyl) 2,2′-((((((R)-1-(6-amino-9H-purin-9-yl)propan-2-yl)oxy)methyl)phosphoryl)bis(azanediyl))bis(2-methylpropanoate)] | 7.84 | 7190 | > 100 | < 1
9 | C[C@H](Cn1cnc2c(N)ncnc21)OCP(=O)(NC(C)(C)C(=O)OCC1CCC(F)(F)CC1)NC(C)(C)C(=O)OCC1CCC(F)(F)CC1 [Example 88, Bis((4,4-difluorocyclohexyl)methyl) 2,2′-(((((1-(6-amino-9H-purin-9-yl)propan-2-yl)oxy)methyl)phosphoryl)bis(azanediyl))(R)-bis(2-methylpropanoate)] | 8.60 | 7290 | > 100 | 69 (≈ 95.6 µM)
10 | C[C@H](Cn1cnc2c(N)ncnc21)OCP(=O)(NC(C)(C)C(=O)OCCC1CCCCC1)NC(C)(C)C(=O)OCCC1CCCCC1 [Example 14, Bis(2-cyclohexylethyl) 2,2′-(((((1-(6-amino-9H-purin-9-yl)propan-2-yl)oxy)methyl)phosphoryl)bis(azanediyl))(R)-bis(2-methylpropanoate)] | 8.59 | 3190 | > 100 | 27 (≈ 39.8 µM)
11 | C[C@H](Cn1cnc2c(N)ncnc21)OCP(=O)(NC(C)(C)C(=O)OCC1CCCCCC1)NC(C)(C)C(=O)OCC1CCCCCC1 [Example 89, Bis(cycloheptylmethyl) 2,2′-(((((1-(6-amino-9H-purin-9-yl)propan-2-yl)oxy)methyl)phosphoryl)bis(azanediyl))(R)-bis(2-methylpropanoate)] | 8.62 | 5100 | > 100 | 
12 | C[C@H](Cn1cnc2c(N)ncnc21)OCP(=O)(NC(C)(C)C(=O)OCC12CCC(CC1)C2)NC(C)(C)C(=O)OCC12CCC(CC1)C2 [Example 87, Bis(bicyclo[2.2.1]heptan-1-ylmethyl) 2,2′-(((((1-(6-amino-9H-purin-9-yl)propan-2-yl)oxy)methyl)phosphoryl)bis(azanediyl))(R)-bis(2-methylpropanoate)] |  | 5050 | > 100 | < 1
13 | C[C@H](Cn1cnc2c(N)ncnc21)OCP(=O)(NC(C)(C)C(=O)OCc1ccccc1)NC(C)(C)C(=O)OCc1ccccc1 [Example 3, Dibenzyl 2,2′-(((((1-(6-amino-9H-purin-9-yl)propan-2-yl)oxy)methyl)phosphoryl)bis(azanediyl))(R)-bis(2-methylpropanoate)] |  | 4460 | > 100 | 50 (≈ 78.4 µM)
14 | CCCCCOC(=O)C(C)(C)NP(=O)(CO[C@H](C)Cn1cnc2c(N)ncnc21)NC(C)(C)C(=O)OCCCCC [Example 4, Dipentyl 2,2′-(((((1-(6-amino-9H-purin-9-yl)propan-2-yl)oxy)methyl)phosphoryl)bis(azanediyl))(R)-bis(2-methylpropanoate)] |  | 8420 | > 100 | 53 (≈ 88.7 µM)
